Experimental data as given in patent publication US12252701B2, “Chimeric antigen receptor T cell therapy” (KITE PHARMA, INC., priority 2020, dated 2025).

Columns and labels:
JAK1 = JAK1 (Homo sapiens, UniProt P23458); assay: JAK kinase inhibition biochemical assay (Kinase-Glo Plus luminescence), JAK1; conditions: for IC50: 10 μM ATP
Description: JAK kinase inhibition in vitro biochemical assays were performed using Kinase-Glo Plus luminescence kinase assay kit (Promega). Kinase activity was measured by quantitating the amount of ATP remaining in solution following a kinase reaction. Luminescent signal from the assay was correlated with the amount of ATP present and was inversely correlated with the amount of kinase activity. Compounds were diluted in 10% DMSO and 5 μl of the dilution were added to a 50 μl reaction so that the final concentration of DMSO was 1% in all of the reactions. […] All enzymatic reactions were conducted at 30° C. for 45 minutes. The 50 μl reaction mixture contained 40 mM Tris, pH 7.4, 10 mM MgCl2, 0.1 mg/ml BSA, 1 mM DTT, 10 μM ATP, Kinase substrate and the enzyme. After the enzymatic reaction, 50 μl of Kinase-Glo Plus Luminescence kinase assay solution (Promega) were added to each reaction and incubated in the plate for 15 minutes at room temperature. Luminescence signal was measured using a Bio-Tek Synergy 2 microplate reader. Kinase activity was performed in duplicate at each concentration and data were analyzed using Graphpad Prism. The difference between luminescence intensities in the absence of Kinase (Lut) and in the presence of Kinase (Luc) was defined as 100% activity (Lut−Luc). Using luminescence signal (Lu) in the presence of the compound, % activity was calculated as: % activity={Lut−Lu)/(Lut−Luc)}×100%, where Lu=the luminescence intensity in the presence of compound.

[1] = system: phospho-STAT-1, -3 and -5 in purified CD14+ monocytes; assay: Intracellular phospho-STAT-1, -3, -5 by BD PhosphoFlow in purified monocytes; type: cell-based, human; conditions: for Monocyte-specific pSTAT1 signaling, inhibition / Monocyte-specific pSTAT3 signaling, inhibition / Monocyte-specific pSTAT5 signaling, inhibition: purified CD14+ monocytes
Description: Further experiments were performed to look at impacts of JAK inhibitors on STAT phosphorylation in various immune cell subsets.

[2] = CAR T cell-derived supernatant, 30 min
[3] = purified monocytes, CAR T derived cytokines/supernatant stimulation, 30 min

Sequence of JAK1 (P23458 whole entry): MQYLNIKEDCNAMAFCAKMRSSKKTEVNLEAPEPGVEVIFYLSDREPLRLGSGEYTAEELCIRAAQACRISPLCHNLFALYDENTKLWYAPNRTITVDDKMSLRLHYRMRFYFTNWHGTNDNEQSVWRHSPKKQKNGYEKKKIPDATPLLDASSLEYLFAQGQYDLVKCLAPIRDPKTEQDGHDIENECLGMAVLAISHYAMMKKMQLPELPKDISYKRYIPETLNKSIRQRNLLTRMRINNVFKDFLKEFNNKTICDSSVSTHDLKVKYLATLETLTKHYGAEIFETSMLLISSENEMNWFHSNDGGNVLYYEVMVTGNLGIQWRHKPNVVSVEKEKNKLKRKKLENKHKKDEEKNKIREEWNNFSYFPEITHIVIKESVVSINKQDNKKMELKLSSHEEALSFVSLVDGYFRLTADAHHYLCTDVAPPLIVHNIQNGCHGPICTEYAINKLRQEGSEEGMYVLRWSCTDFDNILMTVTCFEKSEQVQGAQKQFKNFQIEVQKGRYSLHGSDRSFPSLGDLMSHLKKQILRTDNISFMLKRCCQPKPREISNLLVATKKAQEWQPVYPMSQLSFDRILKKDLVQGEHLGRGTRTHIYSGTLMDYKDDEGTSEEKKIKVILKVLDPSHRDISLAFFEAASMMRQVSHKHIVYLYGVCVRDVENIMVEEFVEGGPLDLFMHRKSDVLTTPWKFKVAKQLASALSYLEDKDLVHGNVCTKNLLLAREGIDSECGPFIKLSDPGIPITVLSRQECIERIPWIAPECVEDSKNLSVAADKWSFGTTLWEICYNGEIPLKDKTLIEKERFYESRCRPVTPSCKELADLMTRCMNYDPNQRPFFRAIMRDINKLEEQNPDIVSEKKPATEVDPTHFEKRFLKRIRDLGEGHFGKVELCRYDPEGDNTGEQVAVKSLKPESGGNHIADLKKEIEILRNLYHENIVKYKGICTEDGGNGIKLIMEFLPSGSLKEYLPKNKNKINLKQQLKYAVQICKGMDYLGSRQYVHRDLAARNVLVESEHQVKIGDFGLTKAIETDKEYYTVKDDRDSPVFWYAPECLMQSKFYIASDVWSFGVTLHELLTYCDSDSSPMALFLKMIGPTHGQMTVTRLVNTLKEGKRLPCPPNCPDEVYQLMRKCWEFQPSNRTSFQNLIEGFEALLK

Compound	less potency than parent compound filgotinib (JAK1)	IC50 (JAK1) [nM]	Monocyte-specific pSTAT1 signaling, inhibition [1, 2] [%]	Monocyte-specific pSTAT3 signaling, inhibition [1, 2] [%]	Monocyte-specific pSTAT5 signaling, inhibition [1, 2] [%]	Monocyte-specific pSTAT1 signaling, inhibition ([1]; rh-GM-CSF-induced)	Monocyte-specific pSTAT3 signaling, inhibition ([1]; rh-GM-CSF-induced)	Monocyte-specific pSTAT5 signaling, inhibition ([1]; rh-GM-CSF-induced) [%]	Monocyte-specific pSTAT1 signaling, inhibition ([1]; rhIFNg-induced) [%]	Monocyte-specific pSTAT3 signaling, inhibition ([1]; rhIFNg-induced) [%]	Monocyte-specific pSTAT5 signaling, inhibition ([1]; rhIFNg-induced) [%]	Monocyte-specific pSTAT1 signaling, inhibition ([1]; rhIL6-induced)	Monocyte-specific pSTAT3 signaling, inhibition ([1]; rhIL6-induced) [%]	Monocyte-specific pSTAT5 signaling, inhibition ([1]; rhIL6-induced)	pSTAT1 inhibition [1, 3] [%]	pSTAT3 inhibition [1, 3] [%]
Nc1nc2cccc(-c3ccc(CN4CCS(=O)(=O)CC4)cc3)n2n1 [GS-829845]	about 10 fold	448	32	80	3	na/ni	na/ni	0	61	100	100	na/ni	33	na/ni	32	80
N#CCC1(n2cc(-c3ncnc4[nH]ccc34)cn2)CN(C2CCN(C(=O)c3ccnc(C(F)(F)F)c3F)CC2)C1 [itacitinib]		13														
